Assays:
[1] = molecular target: T1, HvPat2 (HvPat2-SII) (Haloferax volcanii, UniProt D4GSS9); assay: anti-acetyllysine immunoblot of in vitro acetylation of His-HvGlpK; format: biochemical; conditions: acetyl donor 0.2 mM; 6 uM enzyme; co-substrate HvGlpK 2 uM; 50 mM HEPES pH 7.5, 2 M NaCl, 1 mM DTT, 37 C, 3 h
T1 construct: gene pat2; full-length single GNAT domain, C-terminal StrepII tag kept; expressed in and purified from H. volcanii H26 delta-pat2; 196 residues with tag, 21,636 Da, monomer

[2] = molecular target: T2, HvPat2 (HvPat2-SII) (Haloferax volcanii, UniProt D4GSS9, N147A); assay: as above; format: biochemical; conditions: acetyl donor 0.2 mM; 6 uM enzyme; co-substrate HvGlpK 2 uM; 50 mM HEPES pH 7.5, 2 M NaCl, 1 mM DTT, 37 C, 3 h
T2 construct: gene pat2; full-length single GNAT domain, C-terminal StrepII tag kept; expressed in and purified from H. volcanii H26 delta-pat2; 196 residues with tag, 21,636 Da, monomer
T2 sequence (D4GSS9 entry or part of it N147A): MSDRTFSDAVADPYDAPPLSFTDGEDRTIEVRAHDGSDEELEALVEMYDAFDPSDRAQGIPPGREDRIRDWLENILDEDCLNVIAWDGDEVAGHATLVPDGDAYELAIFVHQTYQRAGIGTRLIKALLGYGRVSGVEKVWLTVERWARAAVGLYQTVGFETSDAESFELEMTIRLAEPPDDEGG

T1 sequence (D4GSS9 entry or part of it): as the sequence (D4GSS9 entry or part of it N147A) above, with A147N counted along it

CC(=O)SCCNC(=O)CCNC(=O)[C@H](O)C(C)(C)COP(=O)(O)OP(=O)(O)OC[C@H]1O[C@@H](n2cnc3c(N)ncnc32)[C@H](O)[C@@H]1OP(=O)(O)O [acetyl-CoA]
anti-acetyllysine immunoblot of in vitro acetylation of His-HvGlpK [1]: when His-HvGlpKEc was incubated with both HvPat2 and acetyl-CoA, a strong signal for lysine acetylation
anti-acetyllysine immunoblot of in vitro acetylation of His-HvGlpK [2]: The V110A variant showed minimal activity, while N147A exhibited reduced activity

— paper PMC12607858, “GNAT family Pat2 is required for long-term survival on glycerol and catalyzes lysine acetylation of glycerol kinase in hypersaline-adapted archaea” (mBio, 2025)
